In the NIST ThermoML archive (doi:10.1016/j.fluid.2013.01.027):
± gives the expanded uncertainty stated by the source.

Conditions: 298.15 K; 101.33 kPa; Liquid; Vibrating tube method

Compound | mass density [kg/m3]
CCCC[N+]1(C)CCCC1.FC(F)(F)C(F)(F)[P-](F)(F)(F)(C(F)(F)C(F)(F)F)C(F)(F)C(F)(F)F | 1582.63 ± 0.76
c1ccsc1 [thiophene] | 1058.48 ± 0.28
c1ccccc1 [benzene] | 873.53 ± 0.14
CCCc1ccccc1 [propylbenzene] | 858.62 ± 0.24
Cc1ccccc1 [toluene] | 863.67 ± 0.14
CCc1ccccc1 [ethylbenzene] | 862.97 ± 0.16

Second part, the molecule after the results:

mass density [kg/m3] | Compound
826.38 ± 0.14 | CCCCCCCCCCO [decan-1-ol]
805.78 ± 0.15 | CCCCO [butan-1-ol]
814.94 ± 0.15 | CCCCCCO [hexan-1-ol]
823.35 ± 0.24 | CCCCCCCCCCCCO [dodecan-1-ol]
823.27 ± 0.14 | CCCCCCCCO [octan-1-ol]
